According to US20240376087A1, “PYRAZOLE AMIDE BASED COMPOUNDS AND USES AGAINST BREAST CANCER THEREOF” (COUNCIL OF SCIENTIFIC AND INDUSTRIAL RESEARCH AN INDIAN …, priority 2021, published 2024):

Experiments:
MDA MB 231 cells [1] = test: Cytotoxicity studies by MTT assay; format: cell-based; settings: Homo sapiens, 24 hrs, read-out: GI50 (50% growth inhibition value)
Protocol: The cells used for the study, human breast adenocarcinoma (MDA-MB-231) and normal human lung fibroblast cells ([…]) were procured from NCCS, Pune, India, and ATCC, VA, USA, respectively. Cells were maintained in standard culture conditions in DMEM supplemented with 10% FBS and 100 units/ml penicillin/streptomycin under 5% CO2 at 37° C. in a humidified incubator. After 2-3 passages, the cells were seeded on cell culture dishes and were used for different experiments.
A 10 mM stock solution of I-8 was prepared in DMSO and diluted with DMEM supplemented with 5% FBS for each experiment so that the DMSO concentration was <0.1% in the treated cells. Paclitaxel at a concentration of 50 nM was used as the positive control.
MTT assay was used for testing the cytotoxicity of NIIST-AC-1 in MDA MB 231 cells. 1×10^4 cells/well were seeded in 96 well culture plates and were treated with different concentrations of NIIST-AC-1 for 24 hrs. The percentage of viable cells were monitored based on the purple colour developed by MTT at 570 nm and from that the concentration of NIIST-AC-1 required for 50% inhibition of the viability was calculated as the GI50 value.

caspase-3 = test: Assay of caspase 3 (fluorometric, cell lysates); format: cell-based, human; settings: MDA MB 231 cell lysates, DEVD-AFC
Protocol: The activities of the initiator caspase-9 and downstream executioner caspase-3 were measured using Fluorometric Assay Kit. The caspase activity in the cell lysates of control and treated cells were measured by using the fluorescent substrate DEVD-AFC (for caspase-3 activity) and LEHD-AFC (for caspase-9 activity). Samples were read at 400-nm excitation filter and 505-nm emission filter in a fluorescent microplate reader (BioTek Synergy HT) using Gen5™ ver 1.05.11 software, and the results were expressed as relative units in terms of fluorescence.

MDA MB 231 cells [2] = test: Measurement of mitochondrial membrane potential (JC-1); format: cell-based, human; settings: MDA MB 231, JC-1, 24 h
Protocol: The cells were then treated with various concentrations of NIIST-AC-1 for 24 h. After removing the spent medium, 100 μl of freshly prepared JC-1 stain was added and samples were then incubated for 20 min in a CO2 incubator at 37° C. Immediately after the incubation, cells were observed under a spinning disc fluorescent microscope (BD Pathway 855), and images were taken using the software BD Atto Vision version 1.6.

[3] = test system: proteins in the extrinsic and intrinsic pathway of apoptosis; test: Protein array for expression of apoptotic proteins; format: cell-based, human; settings: MDA MB 231 lysates
Protocol: The expression of various proteins in the extrinsic and intrinsic pathway of apoptosis on treatment with NIIST-AC-1 was analyzed by using antibody pair-based assay, where the 43 targets were captured on a membrane. Lysates of control and treated cells were spotted to the membrane as protein equivalents. Paired biotinylated detector antibodies and streptavidin HRP were used for development using chemiluminescent method. Comparison of the membrane were done using densitometry software.

MDA MB 231 cells [4] = test: Cell cycle analysis (PI flow cytometry, western blot); format: cell-based, human
Protocol: The distribution of cells in different phases of cell cycle was determined by flow cytometry after staining with propidium iodide. After treatment, the cells were harvested, ethanol fixed and stained with propidium iodide at 25° C. for 30 minutes. The cellular DNA content was measured with BD FACS Fortessa X-20 SORP according to detected signals in FL2 channel (excitation, 493 nm; emission, 636 nm) and data were analyzed with FloJo software, version 9. Approximately 10,000 cells were counted for each analysis, and the distribution of cells in each phase of the cell cycle was saved as histograms. Western blot analysis was done to study the expression profiles of various proteins involved in the cell cycle machinery.

MMP-9 = test: Gelatin zymography for MMP activity; format: cell-based, human; settings: gelatin zymography of spent medium
Protocol: The activity of MMPs in the spent medium from the cell culture was allowed to react with the substrate gelatin impregnated in the SDS-PAGE gel. After electrophoresis, the gel was washed with Triton solution and incubated with activation buffer 50 mM Tris containing 0.2 M NaCl and 5 mM CaCl2) at 37° C. for 18-20 h for reaction to occur. The gel was stained with Coomassie Brilliant Blue solution and after destaining, gelatin cleaved zones by MMPs were observed as white clear zones which were imaged using ChemiDoc™ MP System with IMAGE LAB™ Software (Bio-Rad).

MDA MB 231 cells [5] = test: Glucose uptake study (2-NBDG, FACS); format: cell-based, human
Protocol: The effect of NIIST-AC-1 on the uptake of glucose was analyzed by flow cytometry using 2-NBDG. After incubation of the cells with different concentrations of NIIST-AC-1, the cell culture medium was replaced with medium containing fluorescent 2-NBDG and incubated for 30 minutes. Then the samples were analyzed using BD FACSAria II (BD Biosciences) at FITC range (excitation, 465 nm; emission 540-nm bandpass filter). The mean fluorescence intensities of different groups were analyzed by BD FACSDiva ver 6.1.3 software and corrected for autofluorescence from unlabeled cells.

With `COc1cc(-c2cc(C(=O)NCc3cc(C(F)(F)F)cc(C(F)(F)F)c3)[nH]n2)cc(OC)c1OC` [I-8, N-(3,5-bis(trifluoromethyl)benzyl)-3-(3,4,5-trimethoxyphenyl)-1H-pyrazole-5-carboxamide] the GI50 (MDA MB 231 cells [1]) was 15.1 µM, the “caspase 3 activity” value (caspase-3) was “upregulated caspase activity” and the mitochondrial membrane potential (MDA MB 231 cells [2]) was “loss of mitochondrial membrane potential”. For the same compound, the “expression of apoptotic proteins (intrinsic and extrinsic pathways)” value [3] was “upregulated the proteins involved in intrinsic and extrinsic pathways”, the cell cycle arrest (MDA MB 231 cells [4]; MDA MB 231, PI labelling, FACS) was “cell cycle arrest at S phase” and the “cell cycle regulatory proteins cyclin B1, cyclin A2 and CDK” value (MDA MB 231 cells [4]; western blot) was “downregulated”. For the same compound, the MMP-9 activity (MMP-9) was “reduced” and the glucose uptake (MDA MB 231 cells [5]) was “significant reduction in the uptake of glucose”.
